Patent publication US20240417410A1, “TRICYCLIC COMPOUNDS FOR THE TREATMENT OF CANCER” (Hoffmann-La Roche Inc., priority 2023, published 2024)

What was measured:
[1] = molecular target: KRAS G12C-BRAF complex (Homo sapiens (Human), UniProt P01116+P62937, G12C); assay: KRAS-BRAF with CYPA (500 nM) interaction assay (TR-FRET, Example 136); type: biochemical; conditions: KRAS G12C-BRAF disruption
[2] = test system: AGS cells (KRAS G12D); assay: Cell viability assay (Cell Counting Kit-8, 3-day); type: cell-based, human; conditions: Homo sapiens, 72 h, 72 hrs incubation
Procedure, shortened: (§1)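 Cells were seeded at 5,000 cells/well (NCI-H358) or 2,000 cells/well (AGS, SW620), incubated overnight, then treated with compounds in 0.5% DMSO final for 72 hrs. CCK-8 was added and OD450 minus OD650 read after 2 hrs; IC50 came from a 4-parameter sigmoidal fit.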

[3] = test system: SW620 cells (KRAS G12V); assay: Cell viability assay (Cell Counting Kit-8, 3-day); type: cell-based, human; conditions: Homo sapiens, SW-620; SW620, 72 hrs incubation
Procedure, shortened: as §1

[4] = test system: NCI-H358 cells (KRAS G12C); assay: Cell viability assay (Cell Counting Kit-8, 3-day); type: cell-based, human; conditions: Homo sapiens, NCI-H358, 72 h, NCI-H358, 72 hrs incubation
Procedure, shortened: as §1

[5] = test system: phosphorylation of ERK, KRAS G12D in AGS cells; assay: pERK inhibition assay; type: cell-based; conditions: Homo sapiens, AGS, 4 h
Procedure, shortened: (§2)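 NCI-H358 (KRAS G12C), AGS (G12D) and SW620 (G12V) cells plated overnight, then treated with compound for 4 h in 0.5% DMSO. After fixing and methanol permeabilisation, phospho-ERK was detected by in-cell ELISA (HRP/TMB, OD450). IC50 from a 4-parameter sigmoidal fit.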

[6] = test system: phosphorylation of ERK, KRAS G12C in NCI-H358 cells; assay: pERK inhibition assay; type: cell-based; conditions: Homo sapiens, NCI-H358, 4 h
Procedure, shortened: as §2

[7] = test system: phosphorylation of ERK, KRAS G12V in SW620; assay: pERK inhibition assay; type: cell-based; conditions: Homo sapiens, SW-620, 4 h, SW620 cells
Procedure, shortened: as §2

KRAS G12C-BRAF complex, sequence (P01116-2 other isoform, or with tags, fused parts or gaps G12C): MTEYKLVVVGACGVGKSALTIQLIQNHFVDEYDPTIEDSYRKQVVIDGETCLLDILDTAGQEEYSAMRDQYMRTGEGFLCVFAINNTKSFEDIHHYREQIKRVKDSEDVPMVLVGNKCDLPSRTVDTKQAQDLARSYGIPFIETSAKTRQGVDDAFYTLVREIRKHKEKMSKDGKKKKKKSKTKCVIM
KRAS G12C-BRAF complex, sequence (P62937 whole entry): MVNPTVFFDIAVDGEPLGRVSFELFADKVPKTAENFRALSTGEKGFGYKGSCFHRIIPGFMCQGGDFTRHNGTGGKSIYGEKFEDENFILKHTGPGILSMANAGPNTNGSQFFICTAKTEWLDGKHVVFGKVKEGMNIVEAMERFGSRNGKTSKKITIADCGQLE

| SMILES | IC50 [1] [nM] | IC50 [2] [nM] | IC50 [3] [nM] | IC50 [4] [nM] | IC50 [5] [nM] | IC50 [6] [nM] | IC50 [7] [nM] |
| --- | --- | --- | --- | --- | --- | --- | --- |
| CO[C@@H](C)c1ncc(N2CCNCC2)cc1-c1c2c3cc(cc4c3n1CCC4)-c1csc(n1)C[C@H](NC(=O)[C@H]1[C@H](C)[C@@H]1C)C(=O)N1CCC[C@H](N1)C(=O)OCC(C)(C)C2 (atropisomer, axis not shown; (M)) [Example 108, (1r,2R,3S)-N-[(7S,13S)-(20M)-20-[2-[(1S)-1-methoxyethyl]-5-piperazin-1-yl-3-pyridyl]-17,17-dimethyl-8,14-dioxo-15-oxa-4-thia-9,21,30,31-tetrazahexacyclo[23.3.1.1^2,5.1^9,13.0^19,27.0^21,26]hentriaconta-1 (28),2,5 (31), 19,25 (29),26-hexaen-7-yl]-2,3-dimethyl-cyclopropanecarboxamide] | 4.6 | 1.8 | 0.5 | 2.2 | 3.9 | 1.8 | 0.5 |
| CO[C@@H](C)c1ncc(N2CCOCC2)cc1-c1c2c3cc(cc4c3n1CC(F)(F)C4)-c1csc(n1)C[C@H](NC(=O)[C@H]1C[C@@H]1C)C(=O)N1CCC[C@H](N1)C(=O)OCC(C)(C)C2 (atropisomer, axis not shown; (M)) [Example 75, (1S,2S)-N-[(7S,13S)-23,23-difluoro-(20M)-20-[2-[(1S)-1-methoxyethyl]-5-morpholino-3-pyridyl]-17,17-dimethyl-8,14-dioxo-15-oxa-4-thia-9,21,30,31-tetrazahexacyclo[23.3.1.1^2,5.1^9,13.0^19,27.0^21,26]hentriaconta-1 (28),2,5 (31),19,25 (29),26-hexaen-7-yl]-2-methyl-cyclopropanecarboxamide] | 29.7 | 58.7 | 3.6 | 20.2 | 23.6 | 4.9 | 2.6 |
| CO[C@@H](C)c1ncc(N2CCOCC2)cc1-c1c2c3cc(cc4c3n1CCC4)-c1csc(n1)C[C@H](NC(=O)[C@H]1C[C@@H]1c1cncnc1)C(=O)N1CCC[C@H](N1)C(=O)OCC(C)(C)C2 (atropisomer, axis not shown; (M)) [Example 94, (1S,2S)-N-[(7S,13S)-(20M)-20-[2-[(1S)-1-methoxyethyl]-5-morpholino-3-pyridyl]-17,17-dimethyl-8,14-dioxo-15-oxa-4-thia-9,21,30,31-tetrazahexacyclo[23.3.1.1^2,5.1^9,13.0^19,27.0^21,26]hentriaconta-1 (28),2,5 (31),19,25 (29),26-hexaen-7-yl]-2-pyrimidin-5-yl-cyclopropanecarboxamide] | 6.9 | 6.9 | 0.5 | 2.3 | 2.4 | 0.4 | 0.4 |
| CO[C@@H](C)c1ncc(N2CCN(C)CC2)cc1-c1c2c3cc(cc4c3n1CCC4)-c1csc(n1)C[C@H](NC(=O)[C@H]1C[C@@H]1c1ccccn1)C(=O)N1CCC[C@H](N1)C(=O)OCC(C)(C)C2 (atropisomer, axis not shown; (M)) [Example 30, (1S,2S)-N-[(7S,13S)-(20M)-20-[2-[(1S)-1-methoxyethyl]-5-(4-methylpiperazin-1-yl)-3-pyridyl]-17,17-dimethyl-8,14-dioxo-15-oxa-4-thia-9,21,30,31-tetrazahexacyclo[23.3.1.1^2,5.1^9,13.0^19,27.0^21,26]hentriaconta-1 (28),2,5 (31),19,25 (29),26-hexaen-7-yl]-2-(2-pyridyl)cyclopropanecarboxamide] | 17.2 | 23.4 | 1.3 | 4.9 | 7.3 | 1.3 | < 0.6 |
| CO[C@@H](C)c1ncc(N2CCN(C)CC2)cc1-c1c2c3cc(cc4c3n1CCC4)-c1csc(n1)C[C@H](NC(=O)[C@@H]1C[C@H]1c1ncccn1)C(=O)N1CCC[C@H](N1)C(=O)OCC(C)(C)C2 (atropisomer, axis not shown) [Example 81, (1R,2R)-N-[(7S,13S)-20-[2-[(1S)-1-methoxyethyl]-5-(4-methylpiperazin-1-yl)-3-pyridyl]-17,17-dimethyl-8,14-dioxo-15-oxa-4-thia-9,21,30,31-tetrazahexacyclo[23.3.1.1^2,5.1^9,13.0^19,27.0^21,26]hentriaconta-1 (28),2,5 (31),19,25 (29),26-hexaen-7-yl]-2-pyrimidin-2-yl-cyclopropanecarboxamide] | 30.5 | 23.4 | 0.8 | 5.3 | 6.5 | 1.6 | 1.2 |
| CO[C@@H](C)c1ncc(N2CCN(C)CC2)cc1-c1c2c3cc(cc4c3n1CCC4)-c1csc(n1)C[C@H](NC(=O)[C@H]1C[C@@H]1c1ccncn1)C(=O)N1CCC[C@H](N1)C(=O)OCC(C)(C)C2 (atropisomer, axis not shown; (M)) [Example 50, (1S,2S)-N-[(7S,13S)-(20M)-20-[2-[(1S)-1-methoxyethyl]-5-(4-methylpiperazin-1-yl)-3-pyridyl]-17,17-dimethyl-8,14-dioxo-15-oxa-4-thia-9,21,30,31-tetrazahexacyclo[23.3.1.1^2,5.1^9,13.0^19,27.0^21,26]hentriaconta-1 (28),2,5 (31), 19,25 (29),26-hexaen-7-yl]-2-pyrimidin-4-yl-cyclopropanecarboxamide] | 22 | 72.6 | 3.8 | 24.1 | 20.1 | 3.5 | 2.4 |
| CO[C@@H](C)c1ncc(N2CCOCC2)cc1-c1c2c3cc(cc4c3n1CCC4)-c1csc(n1)C[C@H](NC(=O)[C@H]1[C@@H]3COC[C@@H]31)C(=O)N1CCC[C@H](N1)C(=O)OCC(C)(C)C2 (atropisomer, axis not shown; (M)) [Example 7, (1S,5R,6r)-N-[(7S,13S)-(20M)-20-[2-[(1S)-1-methoxyethyl]-5-morpholino-3-pyridyl]-17,17-dimethyl-8,14-dioxo-15-oxa-4-thia-9,21,30,31-tetrazahexacyclo[23.3.1.1^2,5.1^9,13.0^19,27.0^21,26]hentriaconta-1 (28),2,5 (31), 19,25 (29),26-hexaen-7-yl]-3-oxabicyclo[3.1.0]hexane-6-carboxamide] | 9.4 | 13.1 | 0.8 | 2.4 | 7.9 | 1.6 | 1.2 |
| CO[C@@H](C)c1ncc(N2CCOCC2)cc1-c1c2c3cc(cc4c3n1CC(C)(C)O4)-c1csc(n1)C[C@H](NC(=O)[C@H]1[C@H](C)[C@@H]1C)C(=O)N1CCC[C@H](N1)C(=O)OCC(C)(C)C2 (atropisomer, axis not shown; (M)) [Example 61, (1r,2R,3S)-N-[(7S,13S)-(20M)-20-[2-[(1S)-1-methoxyethyl]-5-morpholino-3-pyridyl]-17,17,23,23-tetramethyl-8,14-dioxo-15,24-dioxa-4-thia-9,21,30,31-tetrazahexacyclo[23.3.1.1^2,5.1^9,13.0^19,27.0^21,26]hentriaconta-1 (28),2,5 (31), 19,25 (29),26-hexaen-7-yl]-2,3-dimethyl-cyclopropanecarboxamide] | 50.9 | 33.4 | 3 | 22.6 | 10.3 | 8.5 | 1.1 |
| CO[C@@H](C)c1ncc(N2CCN(C)CC2)cc1-c1c2c3cc(cc4c3n1CC(F)(F)C4)-c1csc(n1)C[C@H](NC(=O)[C@H]1C[C@@H]1c1cccnc1)C(=O)N1CCC[C@H](N1)C(=O)OCC(C)(C)C2 (atropisomer, axis not shown; (M)) [Example 92] | 16 | 8.8 | 0.7 | 2.5 | 6 | 1.4 | 1 |
| CO[C@@H](C)c1ncc(N2CCOCC2)cc1-c1c2c3cc(cc4c3n1CCC4)-c1csc(n1)C[C@H](NC(=O)[C@H]1C[C@@H]1c1cccnc1)C(=O)N1CCC[C@H](N1)C(=O)OCC(C)(C)C2 (atropisomer, axis not shown; (M)) [Example 89, (1S,2S)-N-[(7S,13S)-(20M)-20-[2-[(1S)-1-methoxyethyl]-5-morpholino-3-pyridyl]-17,17-dimethyl-8,14-dioxo-15-oxa-4-thia-9,21,30,31-tetrazahexacyclo[23.3.1.1^2,5.1^9,13.0^19,27.0^21,26]hentriaconta-1 (28),2,5 (31), 19,25 (29),26-hexaen-7-yl]-2-(3-pyridyl)cyclopropanecarboxamide] | 6 | 6 | 0.3 | 1.5 | 4.8 | 0.6 | 0.4 |
